Calls of active or inactive are those of the source.
Legend:
[1] = target: T1, Polyadenylate-binding protein 1 (Homo sapiens, UniProt P11940); assay: MLLE binding blockers, Cy5 peptide tracer – biochemical, fluorescence polarization, Cy5-PAM2 peptide, secondary, miRNA deadenylation inhibitor project, dose response (AID 602260); format: functional; settings: read-out: IC50_Mean
[2] = target: T1, Polyadenylate-binding protein 1; assay: MLLE domain peptide-binding blockers, IC50 – biochemical, fluorescence polarization, FITC-PAM2 peptide, dose response (AID 602259); format: functional; settings: read-out: IC50_Mean
Protein skinhead-1 = target: T2, Protein skinhead-1 (Caenorhabditis elegans, UniProt P34707); format: functional
T2 sequence (P34707 whole entry): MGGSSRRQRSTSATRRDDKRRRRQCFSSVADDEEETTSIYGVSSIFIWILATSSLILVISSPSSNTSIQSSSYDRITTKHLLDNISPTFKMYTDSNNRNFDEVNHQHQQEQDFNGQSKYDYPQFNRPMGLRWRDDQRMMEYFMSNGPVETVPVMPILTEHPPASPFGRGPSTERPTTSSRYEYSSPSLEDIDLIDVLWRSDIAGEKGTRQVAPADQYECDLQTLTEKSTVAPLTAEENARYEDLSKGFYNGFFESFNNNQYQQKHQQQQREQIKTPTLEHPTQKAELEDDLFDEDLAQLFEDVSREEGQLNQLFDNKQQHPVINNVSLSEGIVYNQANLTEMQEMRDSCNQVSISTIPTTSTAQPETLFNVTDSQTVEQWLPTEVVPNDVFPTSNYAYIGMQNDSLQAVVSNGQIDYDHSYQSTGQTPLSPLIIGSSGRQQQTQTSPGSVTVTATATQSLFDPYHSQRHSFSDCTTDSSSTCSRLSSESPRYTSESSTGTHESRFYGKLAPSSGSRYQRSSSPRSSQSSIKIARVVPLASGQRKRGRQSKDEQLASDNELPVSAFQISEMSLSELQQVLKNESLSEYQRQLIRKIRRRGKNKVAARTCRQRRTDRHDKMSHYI

[3] = reduction of Shn3 3'UTR-driven luciferase in osteoblasts – cell-based, Clone20 osteoblasts, firefly luciferase, cherry-picked, dose response (AID 624132); format: functional;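 note: firefly luciferase luminescence from reporter carrying the Shn3 3'UTR in osteoblasts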
[4] = loss of viability in HepG2 cells – cell-based, CellTiter-Glo, cherry-picked, cytotoxicity control for Shn3 inhibitor project, dose response (AID 624134); format: functional
[5] = non-specific 3'UTR reporter inhibition in Clone20-Shn3RL – cell-based, Renilla luciferase, cherry-picked, counter-screen for Shn3 inhibitor project, dose response (AID 624133); format: functional
[6] = target: T3, High affinity choline transporter 1 (Homo sapiens, UniProt Q9GZV3); assay: human choline transporter blockers, potency – cell-based, 5-point CRC, membrane potential dye, dose response (AID 504840); format: functional
T3 sequence (Q9GZV3 whole entry): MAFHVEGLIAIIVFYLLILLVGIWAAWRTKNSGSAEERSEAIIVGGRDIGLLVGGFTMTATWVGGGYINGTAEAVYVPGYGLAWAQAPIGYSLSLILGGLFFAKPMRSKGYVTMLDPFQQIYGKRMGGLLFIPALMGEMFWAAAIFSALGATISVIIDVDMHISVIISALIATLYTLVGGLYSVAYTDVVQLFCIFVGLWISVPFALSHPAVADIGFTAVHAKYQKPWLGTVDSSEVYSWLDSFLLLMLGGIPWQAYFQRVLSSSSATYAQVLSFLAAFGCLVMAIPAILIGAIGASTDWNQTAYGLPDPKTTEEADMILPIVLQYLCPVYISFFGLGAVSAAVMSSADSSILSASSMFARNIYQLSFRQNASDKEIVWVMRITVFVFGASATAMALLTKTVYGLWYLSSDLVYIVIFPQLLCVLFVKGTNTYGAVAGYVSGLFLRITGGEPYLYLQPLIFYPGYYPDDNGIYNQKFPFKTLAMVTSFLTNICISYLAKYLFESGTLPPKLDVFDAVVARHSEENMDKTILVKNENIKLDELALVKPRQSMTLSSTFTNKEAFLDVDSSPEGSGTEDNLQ

[7] = target: T4, Corticotropin-releasing factor receptor 2/Corticotropin-releasing factor-binding protein (Homo sapiens, UniProt P24387+Q13324); assay: Dose Response confirmation of uHTS hits for small molecule antagonists of the CRF-binding protein and CRF-R2 receptor complex.; format: functional; settings: read-out: IC50_Mean
T4 sequence (Q13324 whole entry): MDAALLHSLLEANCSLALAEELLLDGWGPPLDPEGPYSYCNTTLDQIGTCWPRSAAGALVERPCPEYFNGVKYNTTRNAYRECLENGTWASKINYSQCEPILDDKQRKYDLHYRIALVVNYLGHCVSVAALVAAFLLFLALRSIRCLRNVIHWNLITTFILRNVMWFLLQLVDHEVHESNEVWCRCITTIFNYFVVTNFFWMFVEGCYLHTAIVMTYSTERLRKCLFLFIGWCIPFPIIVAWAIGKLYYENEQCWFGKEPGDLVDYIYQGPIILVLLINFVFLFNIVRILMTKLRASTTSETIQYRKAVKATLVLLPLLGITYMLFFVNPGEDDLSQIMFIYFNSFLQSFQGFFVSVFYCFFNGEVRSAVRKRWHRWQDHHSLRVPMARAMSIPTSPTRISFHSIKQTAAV
T4 sequence (P24387 whole entry): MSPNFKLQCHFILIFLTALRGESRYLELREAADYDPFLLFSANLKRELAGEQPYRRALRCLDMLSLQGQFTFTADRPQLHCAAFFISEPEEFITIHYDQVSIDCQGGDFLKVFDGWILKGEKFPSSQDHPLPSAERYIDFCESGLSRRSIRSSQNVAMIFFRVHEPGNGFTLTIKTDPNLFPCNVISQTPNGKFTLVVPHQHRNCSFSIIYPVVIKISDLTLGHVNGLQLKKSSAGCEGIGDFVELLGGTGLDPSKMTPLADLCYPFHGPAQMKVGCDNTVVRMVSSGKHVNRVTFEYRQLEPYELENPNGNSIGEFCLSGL

[8] = target: T4, Corticotropin-releasing factor receptor 2/Corticotropin-releasing factor-binding protein; assay: activators of CRF receptor 2 with binding protein – uHTS hits, confirmation (AID 602473); format: functional; settings: read-out: EC50_Mean
[9] = viability of uninfected HEp-2 cells – cell-based, HTS, cytotoxicity control for RSV inhibitor project, dose response (AID 2410); format: functional; settings: human respiratory syncytial virus
[10] = target: T5, Heat shock factor protein 1 (Mus musculus, UniProt P38532); assay: enhancement of HSF1-driven luciferase signal – cell-based, NIH3T3, luminescence, dose retest, confirmation (AID 435004); format: functional;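 note: stress induced by proteasome inhibitor MG132 added 30 min after compound; luciferase reporter driven by HSF1 response element in NIH3T3 cells; actives raise luminescence as potentiators of the MG132 stress response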
T5 sequence (P38532 whole entry): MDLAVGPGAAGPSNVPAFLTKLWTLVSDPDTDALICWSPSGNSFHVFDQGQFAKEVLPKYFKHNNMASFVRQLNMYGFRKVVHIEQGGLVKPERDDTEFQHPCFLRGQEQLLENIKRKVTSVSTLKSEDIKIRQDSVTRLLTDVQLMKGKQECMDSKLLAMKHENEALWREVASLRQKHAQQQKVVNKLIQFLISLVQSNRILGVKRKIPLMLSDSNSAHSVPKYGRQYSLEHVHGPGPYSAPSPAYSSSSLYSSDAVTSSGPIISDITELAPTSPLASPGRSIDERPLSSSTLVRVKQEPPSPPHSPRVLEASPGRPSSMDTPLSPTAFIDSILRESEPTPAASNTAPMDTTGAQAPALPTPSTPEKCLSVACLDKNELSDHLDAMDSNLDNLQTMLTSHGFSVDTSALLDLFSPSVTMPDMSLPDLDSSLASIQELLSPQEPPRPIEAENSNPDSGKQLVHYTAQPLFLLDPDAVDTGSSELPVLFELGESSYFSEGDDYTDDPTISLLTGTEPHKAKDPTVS

[11] = Trypanosoma cruzi growth suppression in host cells – NIH3T3 host cells, beta-gal luminescence, confirmation (AID 2044); format: functional, cell-based;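 note: intracellular parasites grown in NIH/3T3 mouse fibroblasts as host cells; luminescent beta-galactosidase reporter signal from transgenic T. cruzi replicating inside host cells; inhibitors lower the luminescence signal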
[12] = NIH3T3 cell viability loss – ATP luminescence, mouse fibroblasts, counter-screen, dose response (AID 2010); format: functional, cell-based;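 note: cells exposed to compound for about 90 hours before reading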
[13] = target: T6, RNA-binding protein pos-1 (Caenorhabditis elegans, UniProt G5EF15); assay: disruptors of C. elegans POS-1 RNA interaction – biochemical, fluorescence polarization, dose response (AID 1964);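 note: purified POS-1 fused to maltose binding protein made in E. coli; potency of compounds blocking POS-1 binding to fluorescent RNA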
T6 sequence (G5EF15 whole entry): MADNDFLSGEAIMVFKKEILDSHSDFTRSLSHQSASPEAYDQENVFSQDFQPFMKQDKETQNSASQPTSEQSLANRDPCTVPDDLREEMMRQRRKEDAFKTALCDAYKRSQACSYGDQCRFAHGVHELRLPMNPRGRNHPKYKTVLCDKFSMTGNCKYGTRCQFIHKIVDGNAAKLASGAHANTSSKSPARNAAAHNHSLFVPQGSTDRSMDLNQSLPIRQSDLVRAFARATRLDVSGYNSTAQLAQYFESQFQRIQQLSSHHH

[14] = target: T7, Zinc finger protein mex-5 (Caenorhabditis elegans, UniProt Q9XUB2); assay: potency of MEX-5 RNA-binding blockers – biochemical, C. elegans, fluorescence polarization, dose response (AID 1960)
T7 sequence (Q9XUB2 whole entry): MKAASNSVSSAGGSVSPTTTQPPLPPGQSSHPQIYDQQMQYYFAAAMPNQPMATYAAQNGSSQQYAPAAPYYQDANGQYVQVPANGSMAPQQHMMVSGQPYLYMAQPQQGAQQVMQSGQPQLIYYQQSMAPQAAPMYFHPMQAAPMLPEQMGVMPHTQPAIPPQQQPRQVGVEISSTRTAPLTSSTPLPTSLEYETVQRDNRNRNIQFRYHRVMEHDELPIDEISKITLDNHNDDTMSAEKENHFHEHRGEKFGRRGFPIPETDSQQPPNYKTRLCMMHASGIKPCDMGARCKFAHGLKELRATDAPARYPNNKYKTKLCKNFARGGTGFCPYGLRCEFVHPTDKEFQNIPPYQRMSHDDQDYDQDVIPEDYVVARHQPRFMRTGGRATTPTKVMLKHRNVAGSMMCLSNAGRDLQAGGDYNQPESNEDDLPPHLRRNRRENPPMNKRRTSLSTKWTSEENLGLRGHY

cells = format: functional
[15] = blockers of HIV-1 envelope-mediated cell-cell fusion – cherry-pick, dose response (AID 652057); format: functional, cell-based

T1 sequence (P11940 whole entry, the tested form may be a part): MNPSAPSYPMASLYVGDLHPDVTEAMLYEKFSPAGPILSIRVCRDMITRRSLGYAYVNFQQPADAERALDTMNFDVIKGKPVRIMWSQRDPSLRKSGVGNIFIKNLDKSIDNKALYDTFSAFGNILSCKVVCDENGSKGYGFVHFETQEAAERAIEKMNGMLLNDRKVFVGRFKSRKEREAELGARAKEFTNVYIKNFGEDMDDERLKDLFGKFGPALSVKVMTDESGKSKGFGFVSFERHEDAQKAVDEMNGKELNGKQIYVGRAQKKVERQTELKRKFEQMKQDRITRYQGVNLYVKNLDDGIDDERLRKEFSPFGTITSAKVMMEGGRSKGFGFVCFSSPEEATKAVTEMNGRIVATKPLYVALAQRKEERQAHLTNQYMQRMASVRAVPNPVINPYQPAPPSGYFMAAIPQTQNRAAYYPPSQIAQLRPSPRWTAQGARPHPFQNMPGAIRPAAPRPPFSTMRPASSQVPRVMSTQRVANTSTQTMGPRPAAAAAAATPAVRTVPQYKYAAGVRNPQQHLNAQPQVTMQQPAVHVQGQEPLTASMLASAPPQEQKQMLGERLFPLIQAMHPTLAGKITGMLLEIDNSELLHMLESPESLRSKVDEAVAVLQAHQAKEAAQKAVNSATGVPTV

OC1(c2ccc(Br)cc2)C[N+](c2ccccc2)=C2SCCN21 (stereo unspecified)
IC50 [1]: > 66 µM (inactive)
IC50 [2]: > 66 µM (inactive)

FC(F)(F)c1cnc2c(-c3ccc(Cl)cc3Cl)noc2c1
IC50 (Protein skinhead-1): > 100 µM (inactive)

Cc1ccc(S(=O)(=O)Nc2ccc3ncccc3c2)cc1
AC50 [3]: 2.2 µM (active)
AC50 [4]: 45.9 µM (active)
AC50 [5]: 29.3 µM (active)

c1ccc2c(c1)OCCc1c-2[nH]c2ccccc12
IC50 (Protein skinhead-1): > 100 µM (inactive)

COc1ccccc1C1C(C(=O)NCc2ccccc2)=C(C)Nc2ncnn21 (stereo unspecified)
IC50 (Protein skinhead-1): > 100 µM (inactive)

CC1CCCCC1NC(=O)c1cccc(N2C(=O)C3C4C=CC(C4)C3C2=O)c1 (stereo unspecified)
IC50 [6]: 14.5 µM (active)

O=C(NC(=S)Nc1ccccc1O)c1ccccc1Cl
IC50 [1]: > 66 µM (inactive)
IC50 [2]: > 66 µM (inactive)

CC(C)(C)c1nnc(N=C(S)Nc2ccccc2)s1
IC50 [1]: > 66 µM (inactive)
IC50 [2]: > 66 µM (inactive)

COc1ccc(C2=NS(=O)(=O)N(C)C(C(=O)N3CCc4ccccc4C3)=C2)cc1OC
AC50 [3]: 4.99 µM (active)
AC50 [4]: 69.3 µM (active)
AC50 [5]: 4.43 µM (active)

Cc1ccc(C(=O)N2c3ccccc3N(Cc3ccccc3)C(=O)C2(C)C)cc1
IC50 [7]: 5.66 µM (active)
AC50 [3]: 6.92 µM (active)
AC50 [4]: > 70 µM (inactive)
EC50 [8]: > 53 µM (inactive)
AC50 [5]: 4.11 µM (active)

O=C(O)c1cnn(-c2nc(-c3cccc([N+](=O)[O-])c3)cs2)c1C(F)(F)F
CC50 [9]: 37.9 µM (active)
EC50 [10]: > 260 µM (inactive)
IC50 [6]: 11 µM (active)

Clc1ccc(OCCSc2ncccn2)cc1
IC50 (Protein skinhead-1): 43.9 µM (active)

CC(c1ccccc1)N1CCc2[nH]c(=S)[nH]c(=O)c2C1 (stereo unspecified)
IC50 [1]: > 66 µM (inactive)
IC50 [2]: > 66 µM (inactive)

NC(=O)COC(=O)c1ccc(Cl)c(S(=O)(=O)N2CCN(c3ccc(F)cc3)CC2)c1
IC50 [6]: 13.8 µM (active)

CC1CCN(Cc2ccc(-c3nnn(CC(=O)Nc4ccccc4Cl)n3)cc2)CC1
AC50 [3]: 1.77 µM (active)
AC50 [4]: > 70 µM (inactive)
AC50 [5]: 3.25 µM (active)

Cc1cccc(NC2SC(=O)NC2=O)c1 (stereo unspecified)
IC50 [1]: > 66 µM (inactive)
IC50 [2]: > 66 µM (inactive)

CCOC(=O)c1c(-c2ccccc2)csc1NC(=O)C1CCCO1 (stereo unspecified)
IC50 [1]: > 66 µM (inactive)
IC50 [2]: > 66 µM (inactive)

CN(c1cccc(NC(=O)CN(c2ccc(C34CC5CC(CC(C5)C3)C4)cc2)S(C)(=O)=O)c1)S(C)(=O)=O
EC50 [11]: 1.6 µM (active)
EC50 [12]: 7.81 µM (active)
AC50 [3]: 7.58 µM (active)
AC50 [4]: 31.2 µM (active)
AC50 [5]: 7.86 µM (active)

Nc1n[nH]c(Sc2c([N+](=O)[O-])cc(C(F)(F)F)cc2[N+](=O)[O-])n1
IC50 [1]: > 66 µM (inactive)
IC50 [2]: > 66 µM (inactive)

CCCCN(c1nc2ccccc2nc1Cl)S(=O)(=O)c1ccc(C)cc1
AC50 [3]: 7.22 µM (active)
AC50 [4]: > 70 µM (inactive)
AC50 [5]: 30.7 µM (active)

COc1ccc(N2CCN(C(=O)CN3CCN(c4nc(-c5ccc(F)cc5)cs4)CC3)CC2)cc1
AC50 [3]: 1.81 µM (active)
AC50 [4]: 58 µM (active)
AC50 [5]: 1.16 µM (active)

Cc1ccc(/C(O)=C/c2nc3ccccc3oc2=O)cc1
EC50 [13]: > 300 µM (inconclusive)
EC50 [14]: > 300 µM (inconclusive)
IC50 (cells): 4.72 µM (active)
EC50 [8]: 11.4 µM (active)

COc1cc2sc3ccc(C#Cc4ccc(N)cc4)cc3c(=O)c2cc1OC
IC50 (Protein skinhead-1): > 100 µM (inactive)

COc1ccc(NC(=S)N/N=C2\CC(C)(C)Oc3ccc(OC)cc32)cc1
IC50 [1]: > 66 µM (inactive)
IC50 [2]: > 66 µM (inactive)

C[C@@H]1CN([C@H](C)CO)C(=O)c2cc(NS(=O)(=O)c3ccc(F)cc3)ccc2O[C@H]1CN(C)Cc1ccc(C(F)(F)F)cc1
AC50 [15]: 33.9 µM (active)

From ChEMBL document CHEMBL1201862, “PubChem BioAssay data set” (2004)
